The assay deals with dorsal hemisection spinal cord injury. The assay is described as follows: Spinal cord injury, T8 dorsal hemisection / over dorsal hemisection, BBB locomotor score. It counts as in vivo, Sprague-Dawley rats. As to conditions: rats. Here is the method: Compound A was tested in both the rat dorsal hemisection (Guth, L. et al. (1980), J. Neurosurgery 52: 73-86) and contusion models (Scheff, S. W. (2003), J. Neurotrauma 20: 179-193) for evaluation of efficacy. These models are widely used in the field of spinal cord injury and replicate many of the pathological aspects found in humans who have sustained a spinal cord injury. Rats were subjected to an experimental spinal cord injury at T8, and were given Compound A shortly thereafter. Behavioral tests to assess the locomotion deficits were performed after the lesion. At the end of the experiment, animals were sacrificed and the spinal cord was collected for histopathological analysis. […] Histological assessment of the tissue at the site of injury was also made in both the drug treated and untreated group. In particular, subsequent to the behavioral measurement, spinal cord tissue from each animal was obtained and serial transverse tissue sections were stained with either anti-neurofilament antibody or antibodies specific for the inflammatory markers, tumor necrosis factor alpha (TNFα) and for the inducible form of nitric oxide synthetase (iNOS), followed by incubation with Alexa Fluor®-conjugated secondary antibodies.
Female rats (Sprague-Dawley, 250-300 g) were purchased from Charles River. One week before spinal cord injury, the animals were both trained and had baseline measures taken on a locomotor behavioral test, the BBB test (Beattie Basso Bresnahan method) (Basso, D. M. et al. (1995), J. Neurotrauma 12(1): 1-21).
The BBB score is a 21-point scale representing 21 stages of locomotor recovery after spinal cord injury. The scale is based on unique combinations of scored behaviors, ranked according to time of appearance after injury. The score can be divided into three parts: from 0-8, the scores emphasize voluntary movements of hindlimb joints; from 8-14, the scores represent standing and stepping with progressively better forelimb-hindlimb coordination; from 15-21, the scores indicate greater strength and better foot placement and balance. […]

“Also recorded” adds a separate entry of the source.

For the molecule `CC(=O)Nc1ccc(C(=O)NC(C)(C)C)cc1` [Compound A, N-tert-butyl-4-acetamidobenzamide], the “neurological function, BBB score” value is “significant improvement in neurological function” (SCI Study No. 1, 14 day dorsal hemisection (1.5 mm), i.p. BID 5 days, 75% PEG200 formulation); “significant improvement in neurological function” (SCI Study No. 2, 21 day over dorsal hemisection (2 mm), 20 mg/kg BID i.p. 5 days, 75% PEG200 formulation); “significant improvement in neurological function; also recorded: robust acute and long-term effects up to 5 weeks” (SCI Study No. 3, 5 week over dorsal hemisection, 20 mg/kg BID i.p. 5 days, 50% PEG400/25% ETOH/25% dH2O, 20 mg/kg).
